The values below come from publication PMC11678425, “(-)-Syringaresinol Exerts an Antidepressant-like Activity in Mice by Noncompetitive Inhibition of the Serotonin Transporter” (Pharmaceuticals, 2024).

For orientation: IC50 means the concentration that gives 50% inhibition.

One data set addresses T1, hSERT T583A (Homo sapiens, UniProt P31645, T583A).
T1 construct: forward and reverse primers were used to amplify a full-length hSERT; expressed in transfected cells; host or cells: HeLa
In words: ASP^+ binding, hSERT T583A. To be noted: S2 site mutant, read-out: SYR IC50 for Binding.

A further data set addresses T2, hSERT P499G (Homo sapiens, UniProt P31645, P499G).
T2 construct: forward and reverse primers were used to amplify a full-length hSERT; expressed in transfected cells; host or cells: HeLa cells, transient, pcDNA3.1
In words: APP^+ uptake, hSERT P499G. To be noted: S2 site mutant, read-out: SYR IC50 for Transport. In kind it is cell-based.

The target of data set [1] is T3, hSERT P561G (Homo sapiens, UniProt P31645, P561G).
T3 construct: forward and reverse primers were used to amplify a full-length hSERT; expressed in transfected cells; host or cells: HeLa
In words: APP^+ uptake, hSERT P561G. It counts as cell-based. To be noted: S2 site mutant, read-out: SYR IC50 for Transport.

The target of another data set is T4, hSERT Q111N (Homo sapiens, UniProt P31645, Q111N).
T4 construct: forward and reverse primers were used to amplify a full-length hSERT; expressed in transfected cells; host or cells: HeLa cells, transient, pcDNA3.1
In words: APP^+ uptake, hSERT Q111N. In kind it is cell-based. The following applies: S2 site mutant, read-out: SYR IC50 for Transport.

For the next data set, the target named is T5, hSERT I172F (Homo sapiens, UniProt P31645, I172F).
T5 construct: forward and reverse primers were used to amplify a full-length hSERT; expressed in transfected cells; host or cells: HeLa
In words: APP^+ uptake, hSERT I172F. In kind it is cell-based. The following applies: S1 site mutant, read-out: SYR IC50 for Transport. The method, then: (§1) HeLa cells were cultured in Dulbecco’s Modified Eagle’s Medium supplemented with 10% fetal bovine serum, 100 units/mL penicillin, and 100 μg/mL streptomycin at 37 °C in a humidified 5% CO2 incubator. Cells grown at ~70% confluence in a 6 cm culture dish were transfected with hSERT cDNA in pcDNA3.1 by lipofectamine 2000. Transfected cells were incubated for 12 h at 37 °C with 5% CO2 and then transferred into 96-well plates. After being grown for an additional 12–16 h, the cells were then assayed for APP^+ uptake or ASP^+ binding.
(§2) Measurement of transport or ligand binding activity of SERT was performed by using its fluorescent substrate (APP^+) or ligand (ASP^+), respectively. The cells transiently expressing WT or mutants of hSERT were applied for various treatments. Briefly, the cells were washed twice with 100 μL KRH buffer containing 20 mM HEPES (Neofroxx, Einhausen, Germany), pH 7.4, 120 mM NaCl, 1.3 mM KCl, 2.2 mM CaCl2, 1.2 mM MgSO4, and 0.1% (w/v) glucose. APP^+ uptake was measured by adding 100 μL KRH buffer containing 2 μM APP^+ and incubating for 5 min at 22 °C. Excess APP^+ was then removed by 3× rapid washing with 100 μL KRH buffer each time. The extent of APP^+ accumulated in the cells was determined by fluorescence spectrometry with an Infinite 200 Pro microplate reader (Tecan, Männedorf, Switzerland). […]

In another data set the target is T6, hSERT WT (Homo sapiens, UniProt P31645).
T6 construct: forward and reverse primers were used to amplify a full-length hSERT; expressed in transfected cells; host or cells: HeLa cells (CCL-2), transient, pcDNA3.1
In words: ASP^+ binding, hSERT WT. To be noted: digitonin-permeabilized cells, read-out: SYR IC50 for Binding.

Data set [2] concerns hSERT S1 mutants (Y95F, I172F, S438T). Kind of data set: APP^+ uptake, S1 site mutants compared with WT. In kind it is cell-based, human. The method, then: as §1, §2
The next data set deals with T7, hSERT D328A (Homo sapiens, UniProt P31645, D328A).
T7 construct: forward and reverse primers were used to amplify a full-length hSERT; expressed in transfected cells; host or cells: HeLa cells, transient, pcDNA3.1
Kind of data set: ASP^+ binding, hSERT D328A. The following applies: S2 site mutant, read-out: SYR IC50 for Binding.

The next data set relates to CUMS mice. In words: Home cage food consumption after NSFT. It counts as in vivo, mouse. To be noted: mouse, in vivo. On the procedure:
Figure 6 Animal behavioral tests. (A) Schematic illustration of animal behavioral test timeline. Mice were exposed to CUMS for 3 weeks, as described in Section 4. […] For the CUMS group, saline was given instead of drugs. NSFT was performed after 16–18 h food deprivation, followed by FST and TST. (B) NSFT. The latency time to food in NSFT was counted. (C) Home cage food consumption. Food consumed by individual mice in the home cage (g) within a 20 min period was measured after NSFT. (D) FST. The immobility time during a 2 to 6 min period in FST was measured. (E) TST. The immobility time during 2 to 6 min was counted. n = 8–10 mice/group. Bars represent the mean ± SEM. * p < 0.05 compared with the control or CUMS group, respectively, by one-way ANOVA followed by post hoc tests. ns, not significant.
NSFT was performed after 16 h food deprivation, as described previously. The mouse was placed in an open field (24 × 40 × 14 cm), where a new chow was put in the center, and the latency time to bite food was counted over 10 min. Home cage feeding within a 20 min period was measured after the test. FST was carried out according to a protocol described previously. The mouse was placed into a beaker (Bomex, Beijing, China) with a height of 18 cm filled with water (22 ± 1 °C) for 6 min. The immobile time was measured during minutes 2–6. […] The immobile time during minutes 2–6 was measured.

In data set [3] the target is T3, hSERT P561G. In words: ASP^+ binding, hSERT P561G. The following applies: S2 site mutant, read-out: SYR IC50 for Binding.

T3 sequence (P31645 whole entry P561G): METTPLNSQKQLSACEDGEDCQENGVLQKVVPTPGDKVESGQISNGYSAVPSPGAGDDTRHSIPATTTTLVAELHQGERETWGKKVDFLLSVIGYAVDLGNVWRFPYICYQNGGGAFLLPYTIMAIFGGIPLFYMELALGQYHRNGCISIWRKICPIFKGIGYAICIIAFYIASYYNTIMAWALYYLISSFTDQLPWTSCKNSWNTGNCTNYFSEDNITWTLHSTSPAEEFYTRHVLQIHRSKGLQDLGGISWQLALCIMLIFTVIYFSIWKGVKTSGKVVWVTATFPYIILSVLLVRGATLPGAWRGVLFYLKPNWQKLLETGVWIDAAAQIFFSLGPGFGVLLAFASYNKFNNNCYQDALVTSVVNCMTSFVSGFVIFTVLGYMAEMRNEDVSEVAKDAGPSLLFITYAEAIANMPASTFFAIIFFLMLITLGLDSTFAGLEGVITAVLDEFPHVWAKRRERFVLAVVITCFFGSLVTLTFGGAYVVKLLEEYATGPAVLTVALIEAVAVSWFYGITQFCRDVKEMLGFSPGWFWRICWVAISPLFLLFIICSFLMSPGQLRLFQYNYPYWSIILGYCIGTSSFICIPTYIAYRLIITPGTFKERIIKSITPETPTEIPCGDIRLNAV
T4 sequence (P31645 whole entry Q111N): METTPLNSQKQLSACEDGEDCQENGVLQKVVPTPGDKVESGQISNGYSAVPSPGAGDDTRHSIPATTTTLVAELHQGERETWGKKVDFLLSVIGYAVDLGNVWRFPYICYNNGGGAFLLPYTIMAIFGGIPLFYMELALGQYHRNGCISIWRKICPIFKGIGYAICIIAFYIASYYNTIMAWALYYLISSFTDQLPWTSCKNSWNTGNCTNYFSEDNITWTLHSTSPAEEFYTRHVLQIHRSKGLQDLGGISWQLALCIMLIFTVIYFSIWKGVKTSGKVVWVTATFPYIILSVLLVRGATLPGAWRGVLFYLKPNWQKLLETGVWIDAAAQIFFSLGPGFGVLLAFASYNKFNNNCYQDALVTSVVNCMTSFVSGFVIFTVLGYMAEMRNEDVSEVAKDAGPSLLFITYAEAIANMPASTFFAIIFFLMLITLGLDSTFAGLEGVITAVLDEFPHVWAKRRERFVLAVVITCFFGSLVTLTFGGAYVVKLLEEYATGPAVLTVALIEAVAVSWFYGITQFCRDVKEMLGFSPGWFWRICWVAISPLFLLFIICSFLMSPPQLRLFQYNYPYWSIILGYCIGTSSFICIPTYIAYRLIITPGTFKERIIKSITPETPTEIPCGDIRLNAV
T7 sequence (P31645 whole entry D328A): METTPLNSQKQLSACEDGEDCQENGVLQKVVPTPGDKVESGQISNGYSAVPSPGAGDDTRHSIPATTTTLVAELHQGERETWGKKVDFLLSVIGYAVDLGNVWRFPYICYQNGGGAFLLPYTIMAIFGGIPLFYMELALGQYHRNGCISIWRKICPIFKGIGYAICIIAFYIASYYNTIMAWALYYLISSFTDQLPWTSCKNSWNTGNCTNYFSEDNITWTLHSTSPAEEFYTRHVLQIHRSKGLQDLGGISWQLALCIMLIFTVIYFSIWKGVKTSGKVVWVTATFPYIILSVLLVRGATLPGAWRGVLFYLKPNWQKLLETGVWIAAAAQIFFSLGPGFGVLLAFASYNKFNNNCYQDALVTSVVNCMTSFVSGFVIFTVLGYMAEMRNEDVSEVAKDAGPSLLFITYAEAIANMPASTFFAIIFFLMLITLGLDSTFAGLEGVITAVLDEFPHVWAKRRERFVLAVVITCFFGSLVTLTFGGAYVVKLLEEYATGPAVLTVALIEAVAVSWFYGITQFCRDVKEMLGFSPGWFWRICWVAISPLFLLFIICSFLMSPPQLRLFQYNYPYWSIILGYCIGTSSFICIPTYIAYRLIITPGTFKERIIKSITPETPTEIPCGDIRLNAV
T2 sequence (P31645 whole entry P499G): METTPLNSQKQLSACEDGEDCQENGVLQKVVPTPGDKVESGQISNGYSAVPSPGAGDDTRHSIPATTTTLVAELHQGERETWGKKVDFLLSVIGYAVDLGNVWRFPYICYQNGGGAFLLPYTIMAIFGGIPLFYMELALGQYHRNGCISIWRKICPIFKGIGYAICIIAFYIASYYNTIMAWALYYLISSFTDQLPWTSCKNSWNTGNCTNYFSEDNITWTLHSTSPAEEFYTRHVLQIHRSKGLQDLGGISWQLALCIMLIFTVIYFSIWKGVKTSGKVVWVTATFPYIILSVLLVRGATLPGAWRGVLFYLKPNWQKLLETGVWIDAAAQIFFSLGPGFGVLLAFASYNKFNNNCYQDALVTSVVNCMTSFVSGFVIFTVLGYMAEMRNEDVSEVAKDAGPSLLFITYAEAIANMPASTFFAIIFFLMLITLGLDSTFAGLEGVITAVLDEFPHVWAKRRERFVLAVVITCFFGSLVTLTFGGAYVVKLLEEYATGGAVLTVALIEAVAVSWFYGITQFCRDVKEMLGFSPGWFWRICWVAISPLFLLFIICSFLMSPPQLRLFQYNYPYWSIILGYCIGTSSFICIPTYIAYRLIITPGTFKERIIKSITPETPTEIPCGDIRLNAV
T1 sequence (P31645 whole entry T583A): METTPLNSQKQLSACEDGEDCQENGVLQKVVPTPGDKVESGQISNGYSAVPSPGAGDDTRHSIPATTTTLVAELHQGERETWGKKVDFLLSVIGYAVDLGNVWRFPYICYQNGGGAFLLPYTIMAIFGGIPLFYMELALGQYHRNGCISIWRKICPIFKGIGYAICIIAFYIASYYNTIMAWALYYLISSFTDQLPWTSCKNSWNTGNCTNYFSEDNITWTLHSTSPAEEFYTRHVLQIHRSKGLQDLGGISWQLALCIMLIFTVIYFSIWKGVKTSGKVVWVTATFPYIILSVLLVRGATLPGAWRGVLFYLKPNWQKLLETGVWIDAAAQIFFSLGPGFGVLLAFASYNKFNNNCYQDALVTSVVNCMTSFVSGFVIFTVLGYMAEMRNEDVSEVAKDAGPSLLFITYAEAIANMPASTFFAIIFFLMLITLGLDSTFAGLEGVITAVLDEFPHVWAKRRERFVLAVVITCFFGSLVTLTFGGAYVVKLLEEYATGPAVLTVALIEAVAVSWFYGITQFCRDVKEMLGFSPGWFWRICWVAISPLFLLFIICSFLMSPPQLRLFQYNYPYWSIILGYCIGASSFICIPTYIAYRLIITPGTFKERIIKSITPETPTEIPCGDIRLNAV
T5 sequence (P31645 whole entry I172F): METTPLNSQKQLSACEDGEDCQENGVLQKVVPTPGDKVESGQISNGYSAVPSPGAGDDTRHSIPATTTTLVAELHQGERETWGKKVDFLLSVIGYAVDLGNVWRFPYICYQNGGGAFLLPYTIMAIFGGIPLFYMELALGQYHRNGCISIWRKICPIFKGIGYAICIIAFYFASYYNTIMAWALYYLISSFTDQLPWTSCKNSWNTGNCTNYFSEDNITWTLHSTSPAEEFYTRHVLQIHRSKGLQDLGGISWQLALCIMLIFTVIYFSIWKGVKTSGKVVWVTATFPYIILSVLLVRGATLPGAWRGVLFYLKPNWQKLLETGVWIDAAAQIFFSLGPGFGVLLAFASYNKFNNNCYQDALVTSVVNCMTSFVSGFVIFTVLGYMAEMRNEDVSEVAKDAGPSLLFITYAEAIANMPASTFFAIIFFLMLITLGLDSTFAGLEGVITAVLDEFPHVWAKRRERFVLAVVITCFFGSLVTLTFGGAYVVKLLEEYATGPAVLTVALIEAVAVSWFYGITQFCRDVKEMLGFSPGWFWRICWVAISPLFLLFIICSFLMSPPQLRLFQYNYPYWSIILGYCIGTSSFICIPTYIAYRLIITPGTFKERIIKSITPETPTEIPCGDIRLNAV
T6 sequence (P31645 whole entry): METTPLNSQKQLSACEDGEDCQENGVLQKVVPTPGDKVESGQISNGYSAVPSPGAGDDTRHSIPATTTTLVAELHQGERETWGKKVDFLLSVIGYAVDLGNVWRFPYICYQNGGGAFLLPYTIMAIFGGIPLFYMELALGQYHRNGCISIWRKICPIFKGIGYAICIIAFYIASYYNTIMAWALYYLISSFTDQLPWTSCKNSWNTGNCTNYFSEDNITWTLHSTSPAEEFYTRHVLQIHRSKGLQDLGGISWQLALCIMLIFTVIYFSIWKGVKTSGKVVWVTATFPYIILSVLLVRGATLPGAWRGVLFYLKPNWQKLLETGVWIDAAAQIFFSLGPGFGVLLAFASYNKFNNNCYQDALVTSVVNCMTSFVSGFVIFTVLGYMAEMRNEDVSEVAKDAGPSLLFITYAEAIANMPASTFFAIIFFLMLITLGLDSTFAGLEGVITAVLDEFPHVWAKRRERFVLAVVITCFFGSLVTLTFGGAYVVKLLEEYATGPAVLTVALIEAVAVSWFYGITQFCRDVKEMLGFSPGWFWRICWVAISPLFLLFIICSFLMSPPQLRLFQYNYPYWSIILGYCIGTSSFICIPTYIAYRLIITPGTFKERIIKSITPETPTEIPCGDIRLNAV

For `COc1cc([C@@H]2OC[C@@H]3[C@H]2CO[C@H]3c2cc(OC)c(O)c(OC)c2)cc(OC)c1O` [SYR, (-)-syringaresinol], the concentration for half-maximal inhibition (IC50) at hSERT T583A worked out at 30.9 ± 0.93 µM; at hSERT P499G, 11 ± 1.43 µM; at hSERT P561G [1], 46.3 ± 0.94 µM; at hSERT Q111N, 17.7 ± 0.45 µM; on hSERT I172F, 2.22 ± 0.04 µM; on hSERT WT, 0.96 ± 0.02 µM. Further, the IC50 at hSERT D328A stood at 39.2 ± 0.78 µM; at hSERT P561G [3], 131 ± 5.72 µM. For the same molecule, in [2], the “SYR IC50 for APP^+ uptake relative to WT” value was 3- to 10 fold. Moreover, in the data set on CUMS mice, the “home cage food consumption” value is reported as “little effect”.
